# Data published in patent US20050197350A1, “Novel quinoline, tetrahydroquinazoline, and pyrimidine derivatives and methods of treatment related to the use thereof” (TAISHO PHARMACEUTICAL CO., LTD., priority 2003, published 2005).
# Test system: MCH receptors
# Experiment: MCH receptor activity class (method not given)
# Details: class by percent of control at 10^−7 M or IC50
row,Compound,class
1,Cc1cc(N(C)C)nc(NC[C@H]2CC[C@@H](NC(=O)c3ccc(C#N)cc3)CC2)n1 [compound 2743],3 (Class 3 The value of percent of control at 10^−7 M was more than 60% or the value of IC50 was more than 200 nM.)
2,"Cc1cc(N(C)C)nc(NC[C@H]2CC[C@@H](NC(=O)c3ccc(Br)cc3)CC2)n1 [compound 2744, 4-bromo-N-[cis-4-({[4-(dimethylamino)-6-methylpyrimidin-2-yl]amino}methyl)cyclohexyl]benzamide]",2 (Class 2: The value of percent of control at 10^−7 M was from 40% to 60% or the value of IC′50 was from 50 nM to 200 nM.)
3,"Cc1cc(N(C)C)nc(NC[C@H]2CC[C@@H](NC(=O)c3ccc(Br)c(C)c3)CC2)n1 [compound 2745, 4-bromo-N-[cis-4-({[4-(dimethylamino)-6-methylpyrimidin-2-yl]amino}methyl)cyclohexyl]-3-methylbenzamide]",2 (Class 2: The value of percent of control at 10^−7 M was from 40% to 60% or the value of IC′50 was from 50 nM to 200 nM.)
4,Cc1cc(N(C)C)nc(NC[C@H]2CC[C@@H](NC(=O)c3ccc(F)c(Cl)c3)CC2)n1 [compound 2746],3 (Class 3 The value of percent of control at 10^−7 M was more than 60% or the value of IC50 was more than 200 nM.)
5,Cc1cc(N(C)C)nc(NC[C@H]2CC[C@@H](NC(=O)c3ccc(C(F)(F)F)c(F)c3)CC2)n1 [compound 2747],3 (Class 3 The value of percent of control at 10^−7 M was more than 60% or the value of IC50 was more than 200 nM.)
6,Cc1cc(N(C)C)nc(NC[C@H]2CC[C@@H](NC(=O)c3cc(Cl)cc(Cl)c3)CC2)n1 [compound 2748],2 (Class 2: The value of percent of control at 10^−7 M was from 40% to 60% or the value of IC′50 was from 50 nM to 200 nM.)
7,Cc1cc(N(C)C)nc(NC[C@H]2CC[C@@H](NC(=O)c3ccc(Cl)c(Cl)c3)CC2)n1 [compound 2749],2 (Class 2: The value of percent of control at 10^−7 M was from 40% to 60% or the value of IC′50 was from 50 nM to 200 nM.)
8,Cc1cc(N(C)C)nc(NC[C@H]2CC[C@@H](NC(=O)c3ccc4c(c3)OC(F)(F)O4)CC2)n1 [compound 2750],3 (Class 3 The value of percent of control at 10^−7 M was more than 60% or the value of IC50 was more than 200 nM.)
9,"Cc1cc(N(C)C)nc(N[C@H]2CC[C@@H](CNC(=O)c3ccccc3)CC2)n1 [compound 2751, N-[(cis-4-{[4-(dimethylamino)-6-methylpyrimidin-2-yl]amino}cyclohexyl)methyl]benzamide]",3 (Class 3 The value of percent of control at 10^−7 M was more than 60% or the value of IC50 was more than 200 nM.)
10,Cc1ccc(C(=O)NC[C@H]2CC[C@@H](Nc3nc(C)cc(N(C)C)n3)CC2)cc1 [compound 2752],3 (Class 3 The value of percent of control at 10^−7 M was more than 60% or the value of IC50 was more than 200 nM.)
11,"Cc1cc(N(C)C)nc(N[C@H]2CC[C@@H](CNC(=O)c3ccc(F)c(F)c3)CC2)n1 [compound 2753, N-[(cis-4-{[4-(dimethylamino)-6-methylpyrimidin-2-yl]amino}cyclohexyl)methyl]-3,4-difluorobenzamide]",3 (Class 3 The value of percent of control at 10^−7 M was more than 60% or the value of IC50 was more than 200 nM.)
12,COc1ccc(C(=O)NC[C@H]2CC[C@@H](Nc3nc(C)cc(N(C)C)n3)CC2)cc1 [compound 2754],3 (Class 3 The value of percent of control at 10^−7 M was more than 60% or the value of IC50 was more than 200 nM.)
13,Cc1cc(N(C)C)nc(N[C@H]2CC[C@@H](CNC(=O)c3ccc(C)c(F)c3)CC2)n1 [compound 2755],2 (Class 2: The value of percent of control at 10^−7 M was from 40% to 60% or the value of IC′50 was from 50 nM to 200 nM.)
14,Cc1cc(N(C)C)nc(N[C@H]2CC[C@@H](CNC(=O)c3ccc(F)c(C)c3)CC2)n1 [compound 2756],3 (Class 3 The value of percent of control at 10^−7 M was more than 60% or the value of IC50 was more than 200 nM.)
15,Cc1cc(N(C)C)nc(N[C@H]2CC[C@@H](CNC(=O)c3cccc(C(F)(F)F)c3)CC2)n1 [compound 2757],3 (Class 3 The value of percent of control at 10^−7 M was more than 60% or the value of IC50 was more than 200 nM.)
16,Cc1cc(N(C)C)nc(N[C@H]2CC[C@@H](CNC(=O)c3ccc(C(F)(F)F)cc3)CC2)n1 [compound 2758],2 (Class 2: The value of percent of control at 10^−7 M was from 40% to 60% or the value of IC′50 was from 50 nM to 200 nM.)
17,Cc1cc(N(C)C)nc(N[C@H]2CC[C@@H](CNC(=O)c3cccc(OC(F)(F)F)c3)CC2)n1 [compound 2759],3 (Class 3 The value of percent of control at 10^−7 M was more than 60% or the value of IC50 was more than 200 nM.)
18,Cc1cc(N(C)C)nc(N[C@H]2CC[C@@H](CNC(=O)c3ccc(OC(F)(F)F)cc3)CC2)n1 [compound 2760],3 (Class 3 The value of percent of control at 10^−7 M was more than 60% or the value of IC50 was more than 200 nM.)
19,Cc1cc(N(C)C)nc(N[C@H]2CC[C@@H](CNC(=O)c3ccc(C#N)cc3)CC2)n1 [compound 2761],3 (Class 3 The value of percent of control at 10^−7 M was more than 60% or the value of IC50 was more than 200 nM.)
20,Cc1cc(N(C)C)nc(N[C@H]2CC[C@@H](CNC(=O)c3ccc(Br)cc3)CC2)n1 [compound 2762],1 (Class 1: The value of percent of control at 10^−7 M was less than 40% or the value of IC50 was less than 50 nM.)
21,Cc1cc(N(C)C)nc(N[C@H]2CC[C@@H](CNC(=O)c3ccc(Br)c(C)c3)CC2)n1 [compound 2763],1 (Class 1: The value of percent of control at 10^−7 M was less than 40% or the value of IC50 was less than 50 nM.)
22,Cc1cc(N(C)C)nc(N[C@H]2CC[C@@H](CNC(=O)c3ccc(F)c(Cl)c3)CC2)n1 [compound 2764],1 (Class 1: The value of percent of control at 10^−7 M was less than 40% or the value of IC50 was less than 50 nM.)
23,Cc1cc(N(C)C)nc(N[C@H]2CC[C@@H](CNC(=O)c3ccc(C(F)(F)F)c(F)c3)CC2)n1 [compound 2765],2 (Class 2: The value of percent of control at 10^−7 M was from 40% to 60% or the value of IC′50 was from 50 nM to 200 nM.)
24,"Cc1cc(N(C)C)nc(N[C@H]2CC[C@@H](CNC(=O)c3cc(Cl)cc(Cl)c3)CC2)n1 [compound 2766, 3,5-dichloro-N-[(cis-4-{[4-(dimethylamino)-6-methylpyrimidin-2-yl]amino}cyclohexyl)methyl]benzamide]",2 (Class 2: The value of percent of control at 10^−7 M was from 40% to 60% or the value of IC′50 was from 50 nM to 200 nM.)
25,Cc1cc(N(C)C)nc(N[C@H]2CC[C@@H](CNC(=O)c3ccc(Cl)c(Cl)c3)CC2)n1 [compound 2767],2 (Class 2: The value of percent of control at 10^−7 M was from 40% to 60% or the value of IC′50 was from 50 nM to 200 nM.)
26,"Cc1cc(N(C)C)nc(N[C@H]2CC[C@@H](CNC(=O)c3ccc(Cl)cc3)CC2)n1 [compound 2770, 4-chloro-N-[(cis-4-{[4-(dimethylamino)-6-methylpyrimidin-2-yl]amino}cyclohexyl)methyl]benzamide]",2 (Class 2: The value of percent of control at 10^−7 M was from 40% to 60% or the value of IC′50 was from 50 nM to 200 nM.)
